# From US20250299796A1, “COMPOSITIONS AND METHODS FOR TREATING AND/OR CHARACTERIZING HEMATOLOGICAL MALIGNANCIES AND PRECURSOR CONDITIONS” (Dana-Farber Cancer Institute, Inc., priority 2021, published 2025)
# Experiments:
# [1] = tested on: patients with high-risk smoldering multiple myeloma (SMM); assay: Phase II trial (E-PRISM): safety and tolerability, adverse events graded by CTCAE v4.0; settings: in vivo
# Experimental: In the treatment schema a cycle is defined as 28 consecutive days. In cycles 1 and 2, 10 mg/kg of intravenous push Elotuzumab were administered on days 1, 8, 15, and 22. In cycles 3-4, it was administered on days 1 and 15. A 25 mg dose of oral Lenalidomide was administered on days 1-21 of each cycle. In Arm A, 40 mg of oral Dexamethasone were administered on days 1, 8, 15, and 22 in cycles 1 and 2 and on days 1, 8, and 15 in cycles 3-8. Patients on maintenance treatment (cycles 9-24) were administered 20 mg/kg of intravenous push Elotuzumab on day 1 and 15 mg oral Lenalidomide on days 1-21. All patients received thromboprophylaxis.
# Toxicities were monitored throughout the study and for up to 30 days after the last dose of the study drug. Adverse events (AEs) were graded according to the National Cancer Institute Common Terminology Criteria for Adverse Events (CTCAE; version 4.0; Bethesda, MD). In addition, neuropathy symptoms were assessed using the FACT/GOG-Neuropathy questionnaire (Version 4.0). Efficacy was measured using the IWMG criteria for response^31.
# Forty-nine patients experienced at least one toxicity while on study with worst grades of 1-mild (n=0), 2-moderate (n=11/51, 22%), and 3-severe (n=29/51, 57%), 4-life threatening (n=7/51, 14%), and 5-fatal (n=2/51, 4%). […]
# [2] = tested on: immune system in patients with SMM; settings: trial of Lenalidomide and Dexamethasone; cited from earlier work
smiles,measurement,setting,value
C[C@@H]1C[C@H]2[C@@H]3CCC4=CC(=O)C=C[C@]4(C)[C@@]3(F)[C@@H](O)C[C@]2(C)[C@@]1(O)C(=O)CO [Dexamethasone],Effect of Dexamethasone dose on type or frequency of treatment-related toxicities,[1],no effect
same,Effect of once weekly high-dose Dexamethasone on the immune system,[2],does not have a detrimental effect
